Results: the supplement of paper PMC10307832

What was measured:
Assay in all cases: relative viability (nuclei count vs DMSO), 5 days (fraction); higher = more cells survive
[1] = compound: CC1=CC(=NN1)NC2=CC(=NC(=N2)/C=C/C3=CC=CC=C3)N4CCN(CC4)C + COc1cc2c(Oc3ccc(NC(=O)C4(C(=O)Nc5ccc(F)cc5)CC4)cc3F)ccnc2cc1OCCCN1CCOCC1 [Foretinib] (partner 0.25 µM)
Summary of the method: (§1)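 Each reported value is a median over duplicate plates. It expresses relative viability: treated-well nuclei count divided by vehicle-well nuclei count. Lung cancer cell lines in 1536-well plates were dosed by pin tool a day after seeding, alone with one drug or with a fixed anchor-drug dose plus five library-drug doses (not always all listed) in √10 steps, and nuclei were counted after 5 days.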

[2] = compound: CC1=CC(=NN1)NC2=CC(=NC(=N2)/C=C/C3=CC=CC=C3)N4CCN(CC4)C + Nc1ncn([C@H]2C[C@H](O)[C@@H](CO)O2)c(=O)n1 [Decitabine] (partner 2 µM)
Summary of the method: as §1

Bortezomib + Olaparib = compound: CC(C)C[C@H](NC(=O)[C@H](Cc1ccccc1)NC(=O)c1cnccn1)B(O)O [Bortezomib] + O=C(c1cc(Cc2n[nH]c(=O)c3ccccc23)ccc1F)N1CCN(C(=O)C2CC2)CC1 [Olaparib] (partner 8 µM)
Summary of the method: as §1

Bortezomib + Phenformin = compound: CC(C)C[C@H](NC(=O)[C@H](Cc1ccccc1)NC(=O)c1cnccn1)B(O)O [Bortezomib] + N=C(N)NC(=N)NCCc1ccccc1 [Phenformin] (partner 250 µM)
Summary of the method: as §1

Row | Cell Line | relative viability ([1]; first compound 0.08 µM) | relative viability ([1]; first compound 0.253 µM) | relative viability ([1]; first compound 0.8 µM) | relative viability ([1]; first compound 2.53 µM) | relative viability ([1]; first compound 8 µM) | relative viability ([2]; first compound 0.08 µM) | relative viability ([2]; first compound 0.253 µM) | relative viability ([2]; first compound 0.8 µM) | relative viability ([2]; first compound 2.53 µM) | relative viability ([2]; first compound 8 µM) | relative viability (Bortezomib + Olaparib; first compound 0.0002 µM) | relative viability (Bortezomib + Olaparib; first compound 0.000632 µM) | relative viability (Bortezomib + Olaparib; first compound 0.002 µM) | relative viability (Bortezomib + Olaparib; first compound 0.006325 µM) | relative viability (Bortezomib + Olaparib; first compound 0.02 µM) | relative viability (Bortezomib + Phenformin; first compound 0.0002 µM) | relative viability (Bortezomib + Phenformin; first compound 0.000632 µM) | relative viability (Bortezomib + Phenformin; first compound 0.002 µM) | relative viability (Bortezomib + Phenformin; first compound 0.006325 µM) | relative viability (Bortezomib + Phenformin; first compound 0.02 µM)
1 | 201T | 1.13 | 1.32 | 1.04 | 1.02 | 0.206 | 0.834 | 0.864 | 0.831 | 0.785 | 0.471 | 0.83 | 0.856 | 0.803 | 0.753 | 0.214 | 0.456 | 0.402 | 0.483 | 0.44 | 0.24
2 | A549 | 1.03 | 0.914 | 0.616 | 0.0324 | 0.0167 | 0.21 | 0.394 | 0.212 | 0.104 | 0.0286 | 0.355 | 0.401 | 0.49 | 0.291 | 0.189 | 0.154 | 0.231 | 0.18 | 0.0502 | 0.0365
3 | A-427 | 0.993 | 1.06 | 0.993 | 0.586 | 0.142 | 0.603 | 0.582 | 0.568 | 0.489 | 0.213 | 0.711 | 0.727 | 0.759 | 0.188 | 0.151 | 0.253 | 0.246 | 0.339 | 0.212 | 0.11
4 | ABC-1 | 1.01 | 1.13 | 0.956 | 0.195 | 0.228 | 1.02 | 0.954 | 1.1 | 0.811 | 0.268 | 0.897 | 0.922 | 0.374 | 0.342 | 0.424 | 0.231 | 0.227 | 0.202 | 0.186 | 0.175
5 | BEN | 0.639 | 0.675 | 0.715 | 0.377 | 0.182 | 0.633 | 0.835 | 0.706 | 0.381 | 0.337 | 1.15 | 0.921 | 0.845 | 0.742 | 0.218 | 0.258 | 0.266 | 0.264 | 0.259 | 0.174
6 | CAL-12T | 1.09 | 1.17 | 0.908 | 0.293 | 0.162 | – | – | – | – | – | 0.625 | 0.675 | 0.62 | 0.282 | 0.199 | 0.552 | 0.585 | 0.586 | 0.25 | 0.114
7 | COR-L23 | 0.967 | 1.01 | 0.904 | 0.211 | 0.107 | 0.511 | 0.451 | 0.392 | 0.125 | 0.113 | 0.37 | 0.375 | 0.203 | 0.0613 | 0.0717 | 0.466 | 0.429 | 0.4 | 0.0535 | 0.0571
8 | COR-L 105 | 0.841 | 1.47 | 1.02 | 0.334 | 0.215 | 0.549 | 0.847 | 0.624 | 0.425 | 0.235 | 0.692 | 0.683 | 0.72 | 0.419 | 0.356 | 0.542 | 0.4 | 0.428 | 0.328 | 0.256
9 | Calu-6 | 0.879 | 0.942 | 0.519 | 0.167 | 0.0898 | – | – | – | – | – | 0.509 | 0.524 | 0.529 | 0.0855 | 0.0795 | – | – | – | – | –
10 | ChaGo-K-1 | 0.952 | 0.915 | 0.79 | 0.353 | 0.186 | 0.509 | 0.587 | 0.465 | 0.383 | 0.21 | 0.387 | 0.385 | 0.432 | 0.151 | 0.115 | 0.416 | 0.455 | 0.45 | 0.462 | 0.153
11 | EBC-1 | 0.107 | 0.115 | 0.103 | 0.106 | 0.0799 | – | – | – | – | – | 0.756 | 0.67 | 0.229 | 0.0791 | 0.064 | – | – | – | – | –
12 | EKVX | 0.761 | 0.786 | 1.14 | 0.504 | 0.213 | 0.299 | 0.297 | 0.374 | 0.331 | 0.152 | 0.763 | 0.81 | 0.812 | 0.237 | 0.11 | 0.238 | 0.237 | 0.238 | 0.239 | 0.139
13 | EMC-BAC-2 | 0.957 | 1.04 | 0.936 | 0.534 | 0.234 | 0.989 | 0.91 | 0.946 | 0.689 | 0.282 | 0.469 | 0.486 | 0.487 | 0.258 | 0.185 | 0.551 | 0.459 | 0.477 | 0.209 | 0.211
14 | EPLC-272H | 0.639 | 0.708 | 0.4 | 0.171 | 0.0935 | 0.345 | 0.373 | 0.36 | 0.245 | 0.163 | 0.9 | 0.746 | 0.171 | 0.0682 | 0.0612 | 0.353 | 0.245 | 0.35 | 0.109 | 0.0723
15 | H3255 | 0.799 | 1.1 | 0.822 | 0.756 | 0.631 | 0.52 | 0.54 | 0.496 | 0.499 | 0.249 | 0.579 | 0.545 | 0.36 | 0.233 | 0.237 | 0.368 | 0.346 | 0.334 | 0.307 | 0.288
16 | HARA | 0.932 | 0.909 | 0.794 | 0.098 | 0.0593 | 0.529 | 0.641 | 0.569 | 0.192 | 0.132 | 0.973 | 0.809 | 0.872 | 0.0712 | 0.0979 | 0.374 | 0.447 | 0.512 | 0.222 | 0.0528
17 | HCC-15 | 1.06 | 1.11 | 0.839 | 0.196 | 0.0908 | 0.592 | 0.654 | 0.655 | 0.108 | 0.0983 | 0.763 | 0.734 | 0.662 | 0.108 | 0.0913 | 0.44 | 0.448 | 0.458 | 0.0952 | 0.0863
